Source: US20020002269A1, “ARTEMIN, A NEUROTROPHIC FACTOR” (priority 1998, published 2002)

Columns and labels:
GFRα1-Fc = experiment: Direct binding of soluble GFRα1-Fc receptor body to plate-coated ligand; settings: ligand coated at 325 ng/ml, absence of RET, FIG. 9C
Procedure: To investigate which if any of the known coreceptor(s) artemin can utilize to activate RET, its ability to directly bind to soluble Fc-fusion forms of GFRα1, GFRα2, or GFRα3 was assessed. GFRα1-Fc, GFRα2-Fc and GFRα3-Fc fusion proteins were obtained from R&D Systems. Binding assays were performed similarly to assays previously described (Sanicola et al., Proc. Natl. Acad. Sci., USA 94:6238-6243, 1997). Recombinant GDNF, neurturin, artemin, persephin, or purified bovine serum albumin (BSA; Pierce) were coated to Nunc-Immuno MaxiSorp microtiter plates at 325 ng/ml in TBS (10 mM Tris-HCl pH 7.5, 150 mM NaCl) for 1 hour at 25° C. Plates were washed (3× in TBS/0.03% Tween-20), and then blocked (blocking solution: TBS/1% BSA) for 1 hr at 25° C. Receptor bodies diluted in blocking solution were added and incubated for 2 hr at 25° C., washed 5X, then incubated with 1:10,000 dilution of HRP-conjugated anti-human Fc antibodies in blocking solution (Jackson Immunoresearch) for 45 minutes at 25° C. Finally, wells were washed 5× and the presence of HRP was assayed by addition of the chromogenic substrate 3,3, 5,5-tetramethylbenzidine for 5 min. The reaction was stopped by adding an equal volume of 0.5M H2SO4, and color was measured in a plate reader at 450 nm. Non-specific binding of receptor bodies to the plates was measured in BSA coated wells, and this binding was subtracted from all other measurements.

[1] = system: NLF cells transformed with GFRα3; experiment: Ga14-Elk/Ga14-Luc reporter in NLF neuroblastoma cells transformed with GFRα3; assay type: cell-based; settings: factor for 24 hours, low-serum medium, FIG. 10B
Procedure: Thus, to directly test which receptor combinations can form functional receptors for artemin, expression plasmids for the individual GFRA coreceptors together with the Ga14-Elk/Ga14-Luc reporter system were transiently transformed into fibroblasts that stably express RET. […]
NLF neuroblastoma cells, which naturally express GFRα2/RET (Tansey et al., submitted), or the RET-3T3 cells were plated at 85,000 cells/well in 12-well plates, and cotransfected with the reporter plasmids Ga14-Luc and CMV-Ga14-Elk (250 ng/well and 50 ng/well, respectively), CMV-lacZ (50 ng/well) for transfection normalization, one of the CMV-GFRA expression plasmids (500 ng/well), and pBluescript (650 ng/well) as carrier for a total of 1.5 μg DNA/well using the Superfect reagent (Qiagen) according to the manufacturer's instructions. […] Measurement of luciferase and β-galactosidase activity was measured using a luminometer and performed as described (Svaren et al., EMBO J 17:6010-6019, 1998). The average luciferase activity of duplicate samples was normalized to β-galactosidase activity of the cotransformed lacZ reporter, and fold activation was calculated by dividing the normalized activity in factor-treated cells by that in the no treatment control.

| Molecule | direct binding of GFRα1-Fc (GFRα1-Fc) | response of NLF cells transformed with GFRα3 (luciferase reporter) [1] |
| --- | --- | --- |
| artemin: recombinant mature human artemin (FIG. 3A, SEQ ID NO:3) with 8-histidine tag, produced in E. coli; GDNF family neurotrophic factor | not to persephin or artemin | allowed the cells to respond to artemin stimulation |
| GDNF: recombinant human mature GDNF obtained from Genentech (protein, UniProt P39905 78-211, looked up) Glial cell line-derived …: SPDKQMAVLPRRERNRQAAAANPENSRGKGRRGQRGKNRGCVLTAIHLNVTDLGLGYETKEELIFRYCSGSCDAAETTYDKILKNLSRNRRLVSDKVGQACCRPIAFDDDLSFLDDNLVYHILRKHSAKRCGCI | able to bind to both GDNF and neurturin with similar affinity | decreased the ability of the cells to respond to GDNF |
